# From patent US10668067B2, “Pyridine sulfonamides” (AMGEN INC., priority 2016, dated 2020)
# Target: human Nav1.7 (Homo sapiens (Human), UniProt Q15858)
# Assay: Nav 1.7 In Vitro PX Assay (PatchXpress whole cell voltage clamp)
# Assay type: cell-based
# Conditions: in-vitro Nav 1.7 PX data
# Protocol: HEK 293 cells stably transfected with human Nav1.7 were recorded in whole cell voltage clamp mode with the PatchXpress automated electrophysiology system (Molecular Devices, LLC, Sunnyvale, Calif.). Compound effects were measured on a partially inactivated state of the sodium channel. Cells were clamped to a holding potential yielding 20 to 50% inactivation. To elicit sodium current, channels were activated by pulsing to −10 mV for 20 msec. This voltage protocol was repeated at a rate of 0.1 Hz throughout the experiment. A single concentration of test compound was applied to cells for a duration of 3 minutes. Peak sodium current was measured at the end of the compound addition period to determine percent inhibition. Three to five cells were tested per concentration, and IC50 curves were fitted to percent inhibition as a function of concentration.
# Sequence of human Nav1.7 (Q15858 whole entry): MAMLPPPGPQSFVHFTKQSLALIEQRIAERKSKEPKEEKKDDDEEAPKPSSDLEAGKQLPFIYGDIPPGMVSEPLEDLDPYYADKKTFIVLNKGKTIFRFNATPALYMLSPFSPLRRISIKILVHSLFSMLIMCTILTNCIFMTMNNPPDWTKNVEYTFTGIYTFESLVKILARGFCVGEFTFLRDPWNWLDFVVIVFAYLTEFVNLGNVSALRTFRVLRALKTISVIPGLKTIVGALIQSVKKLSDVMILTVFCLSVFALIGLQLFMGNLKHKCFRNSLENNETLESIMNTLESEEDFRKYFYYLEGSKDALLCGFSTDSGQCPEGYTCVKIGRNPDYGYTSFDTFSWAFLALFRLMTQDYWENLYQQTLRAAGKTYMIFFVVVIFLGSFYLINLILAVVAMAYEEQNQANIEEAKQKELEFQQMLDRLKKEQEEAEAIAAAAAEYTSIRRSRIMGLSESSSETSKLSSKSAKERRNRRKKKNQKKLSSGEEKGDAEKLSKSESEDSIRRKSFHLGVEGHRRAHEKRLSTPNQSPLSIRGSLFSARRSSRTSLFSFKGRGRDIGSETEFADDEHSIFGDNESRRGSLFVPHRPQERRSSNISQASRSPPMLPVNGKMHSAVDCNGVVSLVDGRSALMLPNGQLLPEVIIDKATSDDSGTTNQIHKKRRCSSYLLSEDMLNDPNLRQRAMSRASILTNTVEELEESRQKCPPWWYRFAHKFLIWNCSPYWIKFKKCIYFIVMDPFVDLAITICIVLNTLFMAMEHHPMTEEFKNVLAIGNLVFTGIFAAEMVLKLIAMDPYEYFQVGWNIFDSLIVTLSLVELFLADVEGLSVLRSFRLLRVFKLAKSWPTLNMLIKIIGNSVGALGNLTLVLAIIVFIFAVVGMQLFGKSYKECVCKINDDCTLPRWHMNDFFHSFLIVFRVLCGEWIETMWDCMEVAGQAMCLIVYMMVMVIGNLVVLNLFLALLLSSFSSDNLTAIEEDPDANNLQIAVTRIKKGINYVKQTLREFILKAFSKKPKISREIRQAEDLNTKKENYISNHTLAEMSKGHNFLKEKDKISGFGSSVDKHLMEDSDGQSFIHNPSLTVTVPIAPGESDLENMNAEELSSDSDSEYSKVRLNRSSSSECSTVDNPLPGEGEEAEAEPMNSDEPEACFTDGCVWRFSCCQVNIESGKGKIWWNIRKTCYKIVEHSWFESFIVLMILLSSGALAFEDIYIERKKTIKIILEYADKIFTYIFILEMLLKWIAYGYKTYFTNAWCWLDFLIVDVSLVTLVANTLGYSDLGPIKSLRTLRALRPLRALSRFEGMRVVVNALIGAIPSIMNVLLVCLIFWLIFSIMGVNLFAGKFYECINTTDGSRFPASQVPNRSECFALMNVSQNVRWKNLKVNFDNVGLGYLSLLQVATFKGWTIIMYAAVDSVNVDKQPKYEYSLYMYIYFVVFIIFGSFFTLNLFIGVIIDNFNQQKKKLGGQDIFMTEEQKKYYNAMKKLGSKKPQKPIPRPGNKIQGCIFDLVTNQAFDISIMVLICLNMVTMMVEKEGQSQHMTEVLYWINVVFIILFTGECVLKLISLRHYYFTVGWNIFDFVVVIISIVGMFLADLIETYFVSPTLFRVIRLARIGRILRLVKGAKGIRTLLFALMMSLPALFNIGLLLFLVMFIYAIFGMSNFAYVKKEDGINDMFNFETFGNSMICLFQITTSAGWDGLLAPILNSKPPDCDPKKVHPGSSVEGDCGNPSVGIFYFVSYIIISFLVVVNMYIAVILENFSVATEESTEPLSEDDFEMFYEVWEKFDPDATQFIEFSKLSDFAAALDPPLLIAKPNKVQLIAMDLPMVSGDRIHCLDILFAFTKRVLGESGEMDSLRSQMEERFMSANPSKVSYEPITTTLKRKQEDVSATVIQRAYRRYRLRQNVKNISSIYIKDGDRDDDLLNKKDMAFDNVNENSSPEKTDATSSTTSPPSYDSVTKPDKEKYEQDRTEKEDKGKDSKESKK
row,Compound,IC50
1,"CNC(=O)N(c1ccc(S(=O)(=O)Nc2ccon2)cn1)c1cc(F)c(-c2cc(OC)c(F)c(OC)c2)cc1OC [Example 1-23, 6-((2,4′-difluoro-3′,5,5′-trimethoxy-4-biphenylyl)(methylcarbamoyl)amino)-N-3-isoxazolyl-3-pyridinesulfonamide]",151 nM
2,"CNC(=O)N(c1ccc(S(=O)(=O)Nc2ccon2)cn1)c1cc(F)c(-c2cc(Cl)c(F)c(OC)c2)cc1OC [Example 1-25, 6-((3′-chloro-2,4′-difluoro-5,5′-dimethoxy-4-biphenylyl)(methylcarbamoyl)amino)-N-3-isoxazolyl-3-pyridinesulfonamide]",16 nM
3,"CNC(=O)N(c1ccc(S(=O)(=O)Nc2ccon2)cn1)c1cc(F)c(-c2ccc(F)c(C(F)(F)F)c2)cc1OC [Example 1-26, 6-((2,4′-difluoro-5-methoxy-3′-(trifluoromethyl)-4-biphenylyl)(methylcarbamoyl)amino)-N-3-isoxazolyl-3-pyridinesulfonamide]",12 nM
4,"CNC(=O)N(c1ccc(S(=O)(=O)Nc2ccon2)cn1)c1cc(F)c(-c2ccc(F)c(OC(F)(F)F)c2)cc1OC [Example 1-27, 6-((2,4′-difluoro-5-methoxy-3′-(trifluoromethoxy)-4-biphenylyl)(methylcarbamoyl)amino)-N-3-isoxazolyl-3-pyridinesulfonamide]",20 nM
5,"CNC(=O)N(c1ccc(S(=O)(=O)Nc2ccon2)cn1)c1cc(Cl)c(-c2ccc(F)c(C)c2)cc1OC [Example 1-28, 6-((2-chloro-4′-fluoro-5-methoxy-3′-methyl-4-biphenylyl)(methylcarbamoyl)amino)-N-3-isoxazolyl-3-pyridinesulfonamide]",58 nM
6,"CNC(=O)N(c1ccc(S(=O)(=O)Nc2ccon2)cn1)c1cc(Cl)c(-c2ccc(Cl)c(C)c2)cc1OC [Example 1-29, 6-((2,4′-dichloro-5-methoxy-3′-methyl-4-biphenylyl)(methylcarbamoyl)amino)-N-3-isoxazolyl-3-pyridinesulfonamide]",20 nM
7,"CNC(=O)N(c1ccc(S(=O)(=O)Nc2ccon2)cn1)c1cc(Cl)c(-c2cccc(C(F)(F)F)c2)cc1OC [Example 1-31, 6-((2-chloro-5-methoxy-3′-(trifluoromethyl)-4-biphenylyl)(methylcarbamoyl)amino)-N-3-isoxazolyl-3-pyridinesulfonamide]",16 nM
8,"CNC(=O)N(c1ccc(S(=O)(=O)Nc2ccon2)cn1)c1cc(Cl)c(-c2cc(Cl)cc(OC)c2)cc1OC [Example 1-32, 6-((2,3′-dichloro-5,5′-dimethoxy-4-biphenylyl)(methylcarbamoyl)amino)-N-3-isoxazolyl-3-pyridinesulfonamide]",14 nM
9,"CNC(=O)N(c1ccc(S(=O)(=O)Nc2ccon2)cn1)c1cc(Cl)c(-c2ccc(Cl)c(OC)c2)cc1OC [Example 1-33, 6-((2,4′-dichloro-3′,5-dimethoxy-4-biphenylyl)(methylcarbamoyl)amino)-N-3-isoxazolyl-3-pyridinesulfonamide]",43 nM
10,"CNC(=O)N(c1ccc(S(=O)(=O)Nc2ccon2)cn1)c1cc(Cl)c(-c2cc(Cl)ccc2C)cc1OC [Example 1-34, 6-((2,5′-dichloro-5-methoxy-2′-methyl-4-biphenylyl)(methylcarbamoyl)amino)-N-3-isoxazolyl-3-pyridinesulfonamide]",27 nM
11,"CNC(=O)N(c1ccc(S(=O)(=O)Nc2ccon2)cn1)c1cc(F)c(-c2ccc(Cl)c(OC)c2)cc1OC [Example 1-35, 6-((4′-chloro-2-fluoro-3′,5-dimethoxy-4-biphenylyl)(methylcarbamoyl)amino)-N-3-isoxazolyl-3-pyridinesulfonamide]",185 nM
12,"CNC(=O)N(c1ccc(S(=O)(=O)Nc2ccon2)cn1)c1cc(Cl)c(-c2cc(OC)cc(C(F)(F)F)c2)cc1OC [Example 1-36, 6-((2-chloro-3′,5-dimethoxy-5′-(trifluoromethyl)-4-biphenylyl)(methylcarbamoyl)amino)-N-3-isoxazolyl-3-pyridinesulfonamide]",11 nM
13,"CNC(=O)N(c1ccc(S(=O)(=O)Nc2ccon2)cn1)c1cc(Cl)c(-c2cccc(OCC(F)(F)F)c2)cc1OC [Example 1-37, 6-((2-chloro-5-methoxy-3′-(2,2,2-trifluoroethoxy)-4-biphenylyl)(methylcarbamoyl)amino)-N-3-isoxazolyl-3-pyridinesulfonamide]",11 nM
14,"CNC(=O)N(c1ccc(S(=O)(=O)Nc2ccon2)cn1)c1cc(Cl)c(-c2cccc(C3CC3)c2)cc1OC [Example 1-38, 6-((2-chloro-3′-cyclopropyl-5-methoxy-4-biphenylyl)(methylcarbamoyl)amino)-N-3-isoxazolyl-3-pyridinesulfonamide]",21 nM
15,"CNC(=O)N(c1ccc(S(=O)(=O)Nc2ccon2)cn1)c1cc(Cl)c(-c2cccc(OC(F)(F)F)c2)cc1OC [Example 1-39, 6-((2-chloro-5-methoxy-3′-(trifluoromethoxy)-4-biphenylyl)(methylcarbamoyl)amino)-N-3-isoxazolyl-3-pyridinesulfonamide]",11 nM
16,"CNC(=O)N(c1ccc(S(=O)(=O)Nc2ccon2)cn1)c1cc(Cl)c(-c2cc(C(F)(F)F)cnc2OC)cc1OC [Example 1-40, 6-((5-chloro-2-methoxy-4-(2-methoxy-5-(trifluoromethyl)-3-pyridinyl)phenyl)(methylcarbamoyl)amino)-N-3-isoxazolyl-3-pyridinesulfonamide]",32 nM
17,"CNC(=O)N(c1ccc(S(=O)(=O)Nc2ccon2)cn1)c1cc(Cl)c(-c2cc(Cl)cnc2OC)cc1OC [Example 1-41, 6-((5-chloro-4-(5-chloro-2-methoxy-3-pyridinyl)-2-methoxyphenyl)(methylcarbamoyl)amino)-N-3-isoxazolyl-3-pyridinesulfonamide]",166 nM
18,"CNC(=O)N(c1ccc(S(=O)(=O)Nc2ccon2)cn1)c1cc(Cl)c(-c2cc(OC)nc(C(F)(F)F)c2)cc1OC [Example 1-42, 6-((5-chloro-2-methoxy-4-(2-methoxy-6-(trifluoromethyl)-4-pyridinyl)phenyl)(methylcarbamoyl)amino)-N-3-isoxazolyl-3-pyridinesulfonamide]",29 nM
19,"CNC(=O)N(c1ccc(S(=O)(=O)Nc2ccon2)cn1)c1cc(Cl)c(-c2ccnc(C(F)(F)F)c2)cc1OC [Example 1-43, 6-((5-chloro-2-methoxy-4-(2-(trifluoromethyl)-4-pyridinyl)phenyl)(methylcarbamoyl)amino)-N-3-isoxazolyl-3-pyridinesulfonamide]",131 nM
20,"CNC(=O)N(c1ccc(S(=O)(=O)Nc2ccon2)cn1)c1cc(Cl)c(-c2ccc(F)cc2)cc1OC [Example 1-44, 6-((2-chloro-4′-fluoro-5-methoxy-4-biphenylyl)(methylcarbamoyl)amino)-N-3-isoxazolyl-3-pyridinesulfonamide]",125 nM
21,"CNC(=O)N(c1ccc(S(=O)(=O)Nc2ccon2)cn1)c1cc(Cl)c(-c2ccc(C(F)(F)F)cc2)cc1OC [Example 1-45, 6-((2-chloro-5-methoxy-4′-(trifluoromethyl)-4-biphenylyl)(methylcarbamoyl)amino)-N-3-isoxazolyl-3-pyridinesulfonamide]",65 nM
22,"CNC(=O)N(c1ccc(S(=O)(=O)Nc2ccon2)cn1)c1cc(Cl)c(-c2ccc(C(F)(F)F)c(OC)c2)cc1OC [Example 1-46, 6-((2-chloro-3′,5-dimethoxy-4′-(trifluoromethyl)-4-biphenylyl)(methylcarbamoyl)amino)-N-3-isoxazolyl-3-pyridinesulfonamide]",46 nM
23,"CNC(=O)N(c1ccc(S(=O)(=O)Nc2ccon2)cn1)c1cc(Cl)c(-c2cccc(OC(F)F)c2)cc1OC [Example 1-47, 6-((2-chloro-3′-(difluoromethoxy)-5-methoxy-4-biphenylyl)(methylcarbamoyl)amino)-N-3-isoxazolyl-3-pyridinesulfonamide]",72 nM
24,"CNC(=O)N(c1ccc(S(=O)(=O)Nc2ccon2)cn1)c1cc(Cl)c(-c2cccc(OC(C)C)c2)cc1OC [Example 1-48, 6-((2-chloro-5-methoxy-3′-(1-methylethoxy)-4-biphenylyl)(methylcarbamoyl)amino)-N-3-isoxazolyl-3-pyridinesulfonamide]",71 nM
25,"CNC(=O)N(c1ccc(S(=O)(=O)Nc2ccon2)cn1)c1cc(Cl)c(-c2cc(F)cc(C(F)(F)F)c2)cc1OC [Example 1-49, 6-((2-chloro-3′-fluoro-5-methoxy-5′-(trifluoromethyl)-4-biphenylyl)(methylcarbamoyl)amino)-N-3-isoxazolyl-3-pyridinesulfonamide]",28 nM
26,"CNC(=O)N(c1ccc(S(=O)(=O)Nc2ccon2)cn1)c1cc(Cl)c(-c2cc(C)c(F)c(OC)c2)cc1OC [Example 1-50, 6-((2-chloro-4′-fluoro-3′,5-dimethoxy-5′-methyl-4-biphenylyl)(methylcarbamoyl)amino)-N-3-isoxazolyl-3-pyridinesulfonamide]",49 nM
27,"CNC(=O)N(c1ccc(S(=O)(=O)Nc2ccon2)cn1)c1cc(Cl)c(-c2cc(OC)cc(OC(F)(F)F)c2)cc1OC [Example 1-51, 6-((2-chloro-3′,5-dimethoxy-5′-(trifluoromethoxy)-4-biphenylyl)(methylcarbamoyl)amino)-N-3-isoxazolyl-3-pyridinesulfonamide]",9 nM
28,"CNC(=O)N(c1ccc(S(=O)(=O)Nc2ccon2)cn1)c1cc(Cl)c(-c2cc(F)c(F)c(F)c2)cc1OC [Example 1-52, 6-((2-chloro-3′,4′,5′-trifluoro-5-methoxy-4-biphenylyl)(methylcarbamoyl)amino)-N-3-isoxazolyl-3-pyridinesulfonamide]",31 nM
29,"CNC(=O)N(c1ccc(S(=O)(=O)Nc2ccon2)cn1)c1cc(Cl)c(-c2cc(Cl)cc(C#N)c2)cc1OC [Example 1-53, 6-((2,3′-dichloro-5′-cyano-5-methoxy-4-biphenylyl)(methylcarbamoyl)amino)-N-3-isoxazolyl-3-pyridinesulfonamide]",48 nM
